Series [1] deals with differentiated human THP-1 monocytes. In words: Cytotoxicity assay, lactate dehydrogenase (LDH) release (CytoTox 96, Promega G1780). The format is cell-based. The following applies: samples from CEC assay, reference standard = non-isomerically pure hydroxypropyl beta-cyclodextrin. The procedure:
Cytotoxicity was measured using a lactate dehydrogenase (LDH) assay, according to the manufacturer's protocol (CytoTox 96® Non-Radioactive Cytotoxicity Assay, Promega, G1780). Supernatants and cell lysates from CEC assay served as samples. Briefly, 50 uL of supernatant and cell lysates were transferred into separate transparent 96-well plates. 50 uL CytoTox 96© Reagent was added to the wells, mixed by pipetting, and incubated for 10 minutes protected from light. 50 μL of Stop Solution was added, mixed by pipetting, and absorbance (OD) was measured at 490 nm in a plate reader. Phenol red-free RPMI with 10% […] and Cell Lysis Buffer (abcam, ab196985) served as background controls. Percent (%) cytotoxicity was measured as OD supernatant/(OD supernatant+OD cell lysate)×100%.
Lactate dehydrogenase (LDH) released from cells treated with compounds of the disclosure at concentrations of 0.1 mM, 0.3 mM and 1 mM, relative to LDH) released from cells treated with a reference standard, are summarized in Table 2. In the table, A denotes compounds releasing LDH in an amount of <70% of that of the reference standard; B denotes compounds releasing LDH in an amount of 71-95% of that of the reference standard; 0 denotes compounds releasing LDH in an amount of 96%-105% of that of the reference standard; +denotes compounds releasing LDH in an amount of 106%-120% of that of the reference standard; and ++denotes compounds releasing LDH in an amount of >120% of that of the reference standard The reference standard is a non-isomerically pure hydroxypropyl beta-cyclodextrin.

Series [2] shares this test system. In words: CEC - Cholesterol Efflux Assay (abcam ab196985). It counts as cell-based. To be noted: 4 h, reference standard = non-isomerically pure hydroxypropyl beta-cyclodextrin. As for the experimental part: Cholesterol Efflux from differentiated human THP-1 monocytes was assessed according to the manufacturer's protocol (abcam, ab196985). Briefly, THP-1 monocytes were differentiated for 48 h in presence of 100 nM phorbol 12-myristate-13-acetate (PMA) in RPMI 1640 growth medium (10% FCS, 1% penicillin/streptomycin) in a humidified incubator (37° C., 5% CO2). Differentiated THP-1 macrophage-like cells were harvested, washed with PBS, resuspended in growth medium, seeded at 1×10^5 cells into 96-well plates, and allowed to adhere for 6h. Cells were washed with serum-free RPMI media, and labelled with 100 μL of fluorescent cholesterol labelling medium (50 uL Labeling Reagent+50 uL serum-free RPMI) for 1 h protected from light. Labeling medium was removed and replaced with 100 μL, 37° C. pre-warmed equilibration medium (50 uL Equilibration Buffer+[…] Reagent A +10 μL/mL Reagent B+50 uL serum-free RPMI) and incubated for 16±1 h in an incubator (37° C., 5% CO2). Equilibration medium was removed, and cells were washed with RPMI (w/o phenol red, w/o serum). Serum cholesterol acceptor was prepared by mixing 2 parts of Serum Treatment Reagent with 5 parts of human serum, incubated on ice for 20 minutes. The mix was centrifuged at 9,000×g for 10 minutes at 4° C., and supernatants were stored on ice until use. THP-1 cells were incubated for 4 h with 100 uL RPMI media (w/o phenol red, w/o serum), spiked with 10 uL of compound (10× stock in PBS) and 2 uL serum acceptor (2%), or RPMI media spiked with 10 uL PBS and 2 uL serum acceptor (negative control). Following incubation, plates were centrifuged and whole supernatants were transferred to an opaque 96-well plate. Remaining cells were lysed by adding 100 μL of Cell Lysis Buffer and shaking at 500 rpm for 25 minutes protected from light. Cell lysate was resuspended and transferred into an opaque 96-well. Plates containing supernatants or cell lysates were measured in a plate reader at 485 nm (excitation) and 523 nm (emission). Percent (%) cholesterol efflux was measured as RFU supernatant/(RFU supernatant +RFU cell lysate)×100%.
The cholesterol efflux from cells treated with compounds of the disclosure at concentrations of 0.1 mM, 0.3 mM and 1 mM, relative to cholesterol efflux from cells treated with a reference standard, are summarized in Table 1. In the table, A denotes compounds with a CEC of >126% of that of the reference standard and B denotes compounds with a CEC of 106% to 125% of that of the reference standard; 0 denotes compounds with a CEC of 96%-105% of that of the reference standard; and—denotes compounds with a CEC of 75%-95% of that of the reference standard. The reference standard is a non-isomerically pure hydroxypropyl beta-cyclodextrin.

In the case of `COCCO[C@H]1[C@H]2O[C@H]3[C@H](O)[C@@H](OCCOC)[C@@H](O[C@H]4[C@H](O)[C@@H](OCCOC)[C@@H](O[C@H]5[C@H](O)[C@@H](OCCOC)[C@@H](O[C@H]6[C@H](O)[C@@H](OCCOC)[C@@H](O[C@H]7[C@H](O)[C@@H](OCCOC)[C@@H](O[C@H]8[C@H](O)[C@@H](OCCOC)[C@@H](O[C@@H]([C@@H]1O)[C@@H](CO)O2)O[C@@H]8CO)O[C@@H]7CO)O[C@@H]6CO)O[C@@H]5CO)O[C@@H]4CO)O[C@@H]3CO` [Compound 1], the “Release of lactate dehydrogenase from cells treated with compounds, relative to reference standard” value (“Release … relative to reference standard” below) in series [1] (0.1 mM), in series [1] (0.3 mM) and in series [1] (1 mM) was “B (B denotes compounds releasing LDH in an amount of 71-95% of that of the reference standard)” each time. In addition, the “Cholesterol efflux from cells treated with compounds, relative to reference standard” value in series [2] (0.1 mM), in series [2] (0.3 mM) and in series [2] (1 mM) was 0 (0 denotes compounds with a CEC of 96%-105% of that of the reference standard) in each case.
Turning to `OCC(O)CO[C@H]1[C@H]2O[C@H]3[C@H](O)[C@@H](OCC(O)CO)[C@@H](O[C@H]4[C@H](O)[C@@H](OCC(O)CO)[C@@H](O[C@H]5[C@H](O)[C@@H](OCC(O)CO)[C@@H](O[C@H]6[C@H](O)[C@@H](OCC(O)CO)[C@@H](O[C@H]7[C@H](O)[C@@H](OCC(O)CO)[C@@H](O[C@H]8[C@H](O)[C@@H](OCC(O)CO)[C@@H](O[C@@H]([C@@H]1O)[C@@H](CO)O2)O[C@@H]8CO)O[C@@H]7CO)O[C@@H]6CO)O[C@@H]5CO)O[C@@H]4CO)O[C@@H]3CO` (stereo partly drawn) [Compound 3], the “Release … relative to reference standard” value is “++ (++denotes compounds releasing LDH in an amount of >120% of that of the reference standard)” in series [1] (0.1 mM), “+ (+denotes compounds releasing LDH in an amount of 106%-120% of that of the reference standard)” in series [1] (0.3 mM) and 0 (0 denotes compounds releasing LDH in an amount of 96%-105% of that of the reference standard) in series [1] (1 mM). Further, the “Cholesterol efflux from cells treated with compounds, relative to reference standard” value in series [2] (0.1 mM), in series [2] (0.3 mM) and in series [2] (1 mM) was “− (—denotes compounds with a CEC of 75%-95% of that of the reference standard)” each time.
For `CC(O)CO[C@@H]1[C@@H](O)[C@H]2O[C@H]3[C@H](OCC(C)O)[C@@H](O)[C@@H](O[C@H]4[C@H](OCC(C)O)[C@@H](O)[C@@H](O[C@H]5[C@H](OCC(C)O)[C@@H](O)[C@@H](O[C@H]6[C@H](OCC(C)O)[C@@H](O)[C@@H](O[C@H]7[C@H](OCC(C)O)[C@@H](O)[C@@H](O[C@H]8[C@H](OCC(C)O)[C@@H](O)[C@@H](O[C@@H]1[C@@H](CO)O2)O[C@@H]8CO)O[C@@H]7CO)O[C@@H]6CO)O[C@@H]5CO)O[C@@H]4CO)O[C@@H]3CO` (stereo partly drawn) [Compound 4], the “Release … relative to reference standard” value in series [1] (0.1 mM), in series [1] (0.3 mM) and in series [1] (1 mM) was “++ (++denotes compounds releasing LDH in an amount of >120% of that of the reference standard)” throughout. In addition, the “Cholesterol efflux from cells treated with compounds, relative to reference standard” value in series [2] (0.1 mM), in series [2] (0.3 mM) and in series [2] (1 mM) was “− (—denotes compounds with a CEC of 75%-95% of that of the reference standard)” each time.
With `CC(O)CO[C@H]1[C@H]2O[C@H]3[C@H](O)[C@@H](OCC(C)O)[C@@H](O[C@H]4[C@H](O)[C@@H](OCC(C)O)[C@@H](O[C@H]5[C@H](O)[C@@H](OCC(C)O)[C@@H](O[C@H]6[C@H](O)[C@@H](OCC(C)O)[C@@H](O[C@H]7[C@H](O)[C@@H](OCC(C)O)[C@@H](O[C@H]8[C@H](O)[C@@H](OCC(C)O)[C@@H](O[C@@H]([C@@H]1O)[C@@H](CO)O2)O[C@@H]8CO)O[C@@H]7CO)O[C@@H]6CO)O[C@@H]5CO)O[C@@H]4CO)O[C@@H]3CO` (stereo partly drawn) [Compound 5], the “Release … relative to reference standard” value in series [1] (0.1 mM), in series [1] (0.3 mM) and in series [1] (1 mM) was 0 (0 denotes compounds releasing LDH in an amount of 96%-105% of that of the reference standard) in each case. Besides, the “Cholesterol efflux from cells treated with compounds, relative to reference standard” value in series [2] (0.1 mM), in series [2] (0.3 mM) and in series [2] (1 mM) was “− (—denotes compounds with a CEC of 75%-95% of that of the reference standard)” each time.
